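Five concentrations, 48 hours, 96-well plates. The concentration for 50% growth inhibition is given as GI50. TGI is the concentration that stops growth completely.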
Key:
Assay in all cases: growth of human tumour cells (NCI), 48 h
SF-295 CNS = system: SF-295 CNS
IGROV1 ovarian = system: IGROV1 ovarian
SF-268 CNS = system: SF-268 CNS
A549 NSCLC = system: A549 NSCLC
NCI/ADR-RES ovarian = system: NCI/ADR-RES ovarian
OVCAR-4 ovarian = system: OVCAR-4 ovarian
NCI-H522 lung = system: NCI-H522 lung
HS 578T breast = system: HS 578T breast
CAKI-1 renal = system: CAKI-1 renal
DU-145 prostate = system: DU-145 prostate
MDA-MB-435 = system: MDA-MB-435
SF-539 CNS = system: SF-539 CNS
MCF7 breast = system: MCF7 breast
PC-3 prostate = system: PC-3 prostate
HOP-62 NSCLC = system: HOP-62 NSCLC
UACC-62 melanoma = system: UACC-62 melanoma
T-47D breast = system: T-47D breast
MDA-MB-231 breast = system: MDA-MB-231 breast
OVCAR-5 ovarian = system: OVCAR-5 ovarian
SK-MEL-5 melanoma = system: SK-MEL-5 melanoma
SW-620 colon = system: SW-620 colon
RPMI-8226 leukemia = system: RPMI-8226 leukemia
SN12C renal = system: SN12C renal
MOLT-4 leukemia = system: MOLT-4 leukemia
OVCAR-8 ovarian = system: OVCAR-8 ovarian
SR leukemia = system: SR leukemia
M14 melanoma = system: M14 melanoma
OVCAR-3 ovarian = system: OVCAR-3 ovarian
U251 CNS = system: U251 CNS
HCT-15 colon = system: HCT-15 colon
NCI-H460 lung = system: NCI-H460 lung
COLO 205 colon = system: COLO 205 colon
CCRF-CEM leukemia = system: CCRF-CEM leukemia
TK-10 renal = system: TK-10 renal
SK-MEL-2 melanoma = system: SK-MEL-2 melanoma
RXF 393 renal = system: RXF 393 renal
HT29 colon = system: HT29 colon
HCT-116 colon = system: HCT-116 colon
SK-MEL-28 melanoma = system: SK-MEL-28 melanoma
HL-60(TB) leukemia = system: HL-60(TB) leukemia
A498 renal = system: A498 renal
KM12 colon = system: KM12 colon
LOX IMVI melanoma = system: LOX IMVI melanoma
EKVX NSCLC = system: EKVX NSCLC
SNB-19 CNS = system: SNB-19 CNS
SNB-75 CNS = system: SNB-75 CNS
K-562 leukemia = system: K-562 leukemia
ACHN renal = system: ACHN renal
UACC-257 melanoma = system: UACC-257 melanoma
HOP-92 NSCLC = system: HOP-92 NSCLC
HCC-2998 colon = system: HCC-2998 colon
UO-31 renal = system: UO-31 renal
NCI-H23 lung = system: NCI-H23 lung
NCI-H226 lung = system: NCI-H226 lung

Q: How did the GI50 (SF-295 CNS) turn out when O=C(NCCNc1nccc(-c2c(-c3cccc(O)c3)nc3sccn23)n1)c1ccccc1 was run?
A: 12.9 µM

Q: What about the TGI (SF-295 CNS) of the same compound?
A: 38 µM

Q: And the GI50 (IGROV1 ovarian)?
A: 3.61 µM

Q: What about the TGI (IGROV1 ovarian) of the same compound?
A: 50.9 µM

Q: And the GI50 (SF-268 CNS)?
A: 15.5 µM

Q: What about the TGI (SF-268 CNS) of the same compound?
A: 87 µM

Q: And the GI50 (A549 NSCLC)?
A: 9.21 µM

Q: What about the TGI (A549 NSCLC) of the same compound?
A: 46.5 µM

Q: What about the GI50 (NCI/ADR-RES ovarian) of the same compound?
A: 34.8 µM

Q: And the TGI (NCI/ADR-RES ovarian)?
A: > 100 µM

Q: What about the GI50 (OVCAR-4 ovarian) of the same compound?
A: 13.9 µM

Q: What about the TGI (OVCAR-4 ovarian) of the same compound?
A: 84.6 µM

Q: And the GI50 (NCI-H522 lung)?
A: 5.76 µM

Q: And the TGI (NCI-H522 lung)?
A: 25.5 µM

Q: And the GI50 (HS 578T breast)?
A: 4.86 µM

Q: What about the TGI (HS 578T breast) of the same compound?
A: 38.3 µM

Q: What about the GI50 (CAKI-1 renal) of the same compound?
A: 5.92 µM

Q: And the TGI (CAKI-1 renal)?
A: 29.6 µM

Q: And the GI50 (DU-145 prostate)?
A: 19.7 µM

Q: And the TGI (DU-145 prostate)?
A: 68.7 µM

Q: And the GI50 (MDA-MB-435)?
A: 0.578 µM

Q: And the TGI (MDA-MB-435)?
A: 12.8 µM

Q: What about the GI50 (SF-539 CNS) of the same compound?
A: 11.3 µM

Q: What about the TGI (SF-539 CNS) of the same compound?
A: 36.8 µM

Q: And the GI50 (MCF7 breast)?
A: 3.24 µM

Q: What about the TGI (MCF7 breast) of the same compound?
A: 14.9 µM

Q: And the GI50 (PC-3 prostate)?
A: 11.9 µM

Q: And the TGI (PC-3 prostate)?
A: 65.7 µM

Q: What about the GI50 (HOP-62 NSCLC) of the same compound?
A: 23.5 µM

Q: And the TGI (HOP-62 NSCLC)?
A: 94.2 µM

Q: And the GI50 (UACC-62 melanoma)?
A: 0.211 µM

Q: And the TGI (UACC-62 melanoma)?
A: 1.37 µM

Q: And the GI50 (T-47D breast)?
A: 11 µM

Q: And the TGI (T-47D breast)?
A: 49 µM

Q: What about the GI50 (MDA-MB-231 breast) of the same compound?
A: 7.05 µM

Q: What about the TGI (MDA-MB-231 breast) of the same compound?
A: 31.5 µM

Q: And the GI50 (OVCAR-5 ovarian)?
A: 18.3 µM

Q: And the TGI (OVCAR-5 ovarian)?
A: 61.8 µM

Q: And the GI50 (SK-MEL-5 melanoma)?
A: 4.15 µM

Q: And the TGI (SK-MEL-5 melanoma)?
A: 17.5 µM

Q: And the GI50 (SW-620 colon)?
A: 18 µM

Q: And the TGI (SW-620 colon)?
A: 79.5 µM

Q: And the GI50 (RPMI-8226 leukemia)?
A: 6.97 µM

Q: And the TGI (RPMI-8226 leukemia)?
A: 25.3 µM

Q: And the GI50 (SN12C renal)?
A: 9.04 µM

Q: What about the TGI (SN12C renal) of the same compound?
A: 38.4 µM

Q: And the GI50 (MOLT-4 leukemia)?
A: 13.5 µM

Q: What about the TGI (MOLT-4 leukemia) of the same compound?
A: 74.2 µM

Q: And the GI50 (OVCAR-8 ovarian)?
A: 11.1 µM

Q: What about the TGI (OVCAR-8 ovarian) of the same compound?
A: 78.8 µM

Q: And the GI50 (SR leukemia)?
A: 5.68 µM

Q: What about the TGI (SR leukemia) of the same compound?
A: 50 µM

Q: What about the GI50 (M14 melanoma) of the same compound?
A: 0.434 µM

Q: What about the TGI (M14 melanoma) of the same compound?
A: 12.3 µM

Q: What about the GI50 (OVCAR-3 ovarian) of the same compound?
A: 12.3 µM

Q: What about the TGI (OVCAR-3 ovarian) of the same compound?
A: 64.8 µM

Q: And the GI50 (U251 CNS)?
A: 17.9 µM

Q: What about the TGI (U251 CNS) of the same compound?
A: > 100 µM

Q: And the GI50 (HCT-15 colon)?
A: 18.8 µM

Q: What about the TGI (HCT-15 colon) of the same compound?
A: 62.2 µM

Q: And the GI50 (NCI-H460 lung)?
A: 10.4 µM

Q: What about the TGI (NCI-H460 lung) of the same compound?
A: 27.5 µM

Q: What about the GI50 (COLO 205 colon) of the same compound?
A: 3.99 µM

Q: And the TGI (COLO 205 colon)?
A: 23.8 µM

Q: And the GI50 (CCRF-CEM leukemia)?
A: 3.38 µM

Q: What about the TGI (CCRF-CEM leukemia) of the same compound?
A: 34.1 µM

Q: What about the GI50 (TK-10 renal) of the same compound?
A: 11.7 µM

Q: And the TGI (TK-10 renal)?
A: 37.1 µM

Q: What about the GI50 (SK-MEL-2 melanoma) of the same compound?
A: 2.94 µM

Q: What about the TGI (SK-MEL-2 melanoma) of the same compound?
A: 12.9 µM

Q: What about the GI50 (RXF 393 renal) of the same compound?
A: 4.14 µM

Q: And the TGI (RXF 393 renal)?
A: 22.2 µM

Q: And the GI50 (HT29 colon)?
A: 6.8 µM

Q: And the TGI (HT29 colon)?
A: 38.3 µM

Q: What about the GI50 (HCT-116 colon) of the same compound?
A: 4.82 µM

Q: And the TGI (HCT-116 colon)?
A: 17.5 µM

Q: And the GI50 (SK-MEL-28 melanoma)?
A: 0.336 µM

Q: And the TGI (SK-MEL-28 melanoma)?
A: 99.1 µM

Q: And the GI50 (HL-60(TB) leukemia)?
A: 10.2 µM

Q: And the TGI (HL-60(TB) leukemia)?
A: 29.6 µM

Q: And the GI50 (A498 renal)?
A: 3.68 µM

Q: What about the TGI (A498 renal) of the same compound?
A: 19.3 µM

Q: What about the GI50 (KM12 colon) of the same compound?
A: 12.1 µM

Q: And the TGI (KM12 colon)?
A: 28.5 µM

Q: What about the GI50 (LOX IMVI melanoma) of the same compound?
A: 3.22 µM

Q: What about the TGI (LOX IMVI melanoma) of the same compound?
A: 17.8 µM

Q: And the GI50 (EKVX NSCLC)?
A: 25 µM

Q: What about the TGI (EKVX NSCLC) of the same compound?
A: > 100 µM

Q: What about the GI50 (SNB-19 CNS) of the same compound?
A: 29.4 µM

Q: What about the TGI (SNB-19 CNS) of the same compound?
A: > 100 µM

Q: What about the GI50 (SNB-75 CNS) of the same compound?
A: 3.27 µM

Q: And the TGI (SNB-75 CNS)?
A: 28.1 µM

Q: What about the GI50 (K-562 leukemia) of the same compound?
A: 9.11 µM

Q: And the TGI (K-562 leukemia)?
A: > 100 µM

Q: What about the GI50 (ACHN renal) of the same compound?
A: 6.43 µM

Q: What about the TGI (ACHN renal) of the same compound?
A: 34.9 µM

Q: And the GI50 (UACC-257 melanoma)?
A: 0.489 µM

Q: And the TGI (UACC-257 melanoma)?
A: 18.5 µM

Q: What about the GI50 (HOP-92 NSCLC) of the same compound?
A: 2.22 µM

Q: And the TGI (HOP-92 NSCLC)?
A: 33.2 µM

Q: And the GI50 (HCC-2998 colon)?
A: 13.8 µM

Q: What about the TGI (HCC-2998 colon) of the same compound?
A: 31.2 µM

Q: What about the GI50 (UO-31 renal) of the same compound?
A: 12.2 µM

Q: And the TGI (UO-31 renal)?
A: 88.7 µM

Q: And the GI50 (NCI-H23 lung)?
A: 10 µM

Q: What about the TGI (NCI-H23 lung) of the same compound?
A: 30.7 µM

Q: What about the GI50 (NCI-H226 lung) of the same compound?
A: 7.95 µM

Q: What about the TGI (NCI-H226 lung) of the same compound?
A: 45.3 µM

Source: PubChem BioAssay (NCI)
